In patent US10538497B2, “Compounds as indoleamine 2,3-dioxygenase inhibitors” (Merck Sharp & Dohme Corp., priority 2015, dated 2020):

How the values were obtained:
IDO1 [1] = target: T1, IDO1 (Homo sapiens (Human), UniProt P14902); assay: IDO1 Cellular Assay in Hela Cells Stimulated with IFNγ; format: cell-based; conditions: Hela cells stimulated with IFNγ 100 ng/mL; read-out: IDO1 HELA Cell Assay, IC50
Protocol: IDO1 Cellular Assay in Hela Cells Stimulated with IFNγ
Hela cells were cultured in complete Hela culture medium (90% EMEM, 10% heat-inactivated fetal bovine serum) and expanded to about 1×10^9 cells. The cells were then collected and frozen down at 10×10^6 cells/vial in 1 mL frozen medium (90% complete Hela culture medium, 10% DMSO)
Frozen Hela cells were thawed and transferred into Hela assay medium (99% complete Hela culture medium, 1% Pen/Strep) with 20 mL medium/vial of cells. The cells were spun down at 250 g in a table top centrifuge for 5 min and suspended in same volume of Hela assay medium. The cells were then counted and adjusted to a density of 2×10^5 cells/ml in Hela assay medium. Sterile L-tryptophan were added to the cells with final concentration of 300 uM L-tryptophan. A small aliquot (2 mL/plate) of Hela cells were set aside and were not treated with IFNγ, to serve as the Max-E control. The rest of Hela cells were added with sterile IFNγ (Cat #285-IF, R & D systems) with a final concentration of 100 ng/mL.
Hela cells with and without IFNγ were dispensed to the respective wells of 384-well assay plates containing the compounds. The plates were incubated for about 48 hours at a 37° C., 5% CO2 incubator. […] The plates were centrifuged for 1 min at 200×g. The resulting fluorescence was measured in a Spectramax plate reader (Molecular Devices) with a 400 nm excitation filter and a 510 nm emission filter.

IDO1 [2] = target: T1, IDO1; assay: IDO1 Enzyme Assay; conditions: HIS-tagged recombinant IDO1, 40 nM
[3] = read-out: IDO1 Enzyme Assay, IC50

T1 sequence (P14902 whole entry): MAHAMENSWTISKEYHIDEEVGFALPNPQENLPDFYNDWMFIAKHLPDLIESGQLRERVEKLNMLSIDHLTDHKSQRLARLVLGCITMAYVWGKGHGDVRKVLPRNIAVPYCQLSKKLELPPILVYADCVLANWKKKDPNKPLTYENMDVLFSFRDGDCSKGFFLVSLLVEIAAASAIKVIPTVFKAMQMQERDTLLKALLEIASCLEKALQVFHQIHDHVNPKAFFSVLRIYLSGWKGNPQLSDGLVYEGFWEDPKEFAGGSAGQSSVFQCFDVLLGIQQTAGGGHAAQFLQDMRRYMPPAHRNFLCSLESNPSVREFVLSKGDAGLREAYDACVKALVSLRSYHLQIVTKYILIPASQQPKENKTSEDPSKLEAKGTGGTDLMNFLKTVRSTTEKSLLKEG

Row | SMILES | IC50 (IDO1 [1]) [nM] | IC50 (IDO1 [2]; [3]) [nM] | IC50 (IDO1 [2]; IDO1 Enzyme Assay, IC50, nM) [nM]
1 | O=C(CSc1nonc1C(=NO)Nc1ccc(F)c(Br)c1)N1CCC[C@@H]1CO [Example 135, N-(3-bromo-4-fluorophenyl)-N′-hydroxy-4-({2-[(2R)-2-(hydroxymethyl)pyrrolidin-1-yl]-2-oxoethyl}sulfanyl)-1,2,5-oxadiazole-3-carboximidamide] |  |  | 106
2 | NS(=O)(=O)N[C@H](CO)CSc1nonc1/C(=N/O)Nc1ccc(F)c(Br)c1 [Example 194, N-(3-bromo-4-fluorophenyl)-N′-hydroxy-4-{[(2R)-3-hydroxy-2-(sulfamoylamino)propyl]sulfanyl}-1,2,5-oxadiazole-3-carboximidamide] | 47.1 | 51 | 
3 | CC(C)(CO)NC(=O)CSc1nonc1/C(=N/O)Nc1ccc(F)c(Br)c1 [Example 27, 2-((4-(N-(3-bromo-4-fluorophenyl)-N′-hydroxycarbamimidoyl)-1,2,5-oxadiazol-3-yl)thio)-N-(1-hydroxy-2-methylpropan-2-yl)acetamide] | 17.6 | 29.8 | 
4 | O=c1c(NCCSc2nonc2/C(=N/O)Nc2ccc(F)c(Br)c2)c(NCC2CC2)c1=O [Example 89, N-(3-bromo-4-fluorophenyl)-4-{[2-({2-[(cyclopropylmethyl)amino]-3,4-dioxocyclobut-1-en-1-yl}amino)ethyl]sulfanyl}-N′-hydroxy-1,2,5-oxadiazole-3-carboximidamide] |  | 39 | 
5 | CC(C)(O)CNC(=O)CSc1nonc1/C(=N/O)Nc1ccc(F)c(Br)c1 [Example 28, 2-((4-(N-(3-bromo-4-fluorophenyl)-N′-hydroxycarbamimidoyl)-1,2,5-oxadiazol-3-yl)thio)-N-(2-hydroxy-2-methylpropyl)acetamide] | 65.9 | 38 | 
6 | CC(=O)NCCOc1nonc1/C(=N/O)Nc1ccc(F)c(Br)c1 [Example 5, N-(2-((4-(N-(3-bromo-4-fluorophenyl)-N′-hydroxycarbamimidoyl)-1,2,5-oxadiazol-3-yl)oxy)ethyl)acetamide] | 94 | 47.6 | 
7 | O=c1c(NCCO)c(NCCSc2nonc2/C(=N/O)Nc2ccc(F)c(Br)c2)c1=O [Example 90, N-(3-bromo-4-fluorophenyl)-N′-hydroxy-4-{[2-({2-[(2-hydroxyethyl)amino]-3,4-dioxocyclobut-1-en-1-yl}amino)ethyl]sulfanyl}-1,2,5-oxadiazole-3-carboximidamide] |  | 29.3 | 
8 | O=C(CSc1nonc1/C(=N/O)Nc1ccc(F)c(Br)c1)N1C[C@@H](O)[C@@H](O)C1 [Example 195, N-(3-bromo-4-fluorophenyl)-4-((2-((3S,4R)-3,4-dihydroxypyrrolidin-1-yl)-2-oxoethyl)thio)-N′-hydroxy-1,2,5-oxadiazole-3-carboximidamide] | 342 | 92.5 | 
9 | CC(C)(O)[C@H](O)CSc1nonc1C(=NO)Nc1ccc(F)c(C#N)c1 [Example 39, (S)—N-(3-cyano-4-fluorophenyl)-4-((2,3-dihydroxy-3-methylbutyl)thio)-N′-hydroxy-1,2,5-oxadiazole-3-carboximidamide] | 87.6 | 118 | 
10 | CC(C)(O)[C@@H](O)CSc1nonc1C(=NO)Nc1ccc(F)c(C#N)c1 [Example 38, (R)—N-(3-cyano-4-fluorophenyl)-4-((2,3-dihydroxy-3-methylbutyl)thio)-N′-hydroxy-1,2,5-oxadiazole-3-carboximidamide] | 118 | 144 | 
11 | O=C(CSc1nonc1C(=NO)Nc1ccc(F)c(Br)c1)N1CCCC1 [Example 136, N-(3-bromo-4-fluorophenyl)-N′-hydroxy-4-[(2-oxo-2-pyrrolidin-1-ylethyl)sulfanyl]-1,2,5-oxadiazole-3-carboximidamide] |  |  | 112
12 | O=C(CSc1nonc1C(=NO)Nc1ccc(F)c(Br)c1)NCCF [Example 137, 2-({4-[N-(3-bromo-4-fluorophenyl)-N′-hydroxycarbamimidoyl]-1,2,5-oxadiazol-3-yl}sulfanyl)-N-(2-fluoroethyl)acetamide] |  |  | 34.9
13 | O=S1(=O)NC[C@H](CSc2nonc2/C(=N/O)Nc2ccc(F)c(Br)c2)N1 [Example 33, (R)—N-(3-bromo-4-fluorophenyl)-4-(((1,1-dioxido-1,2,5-thiadiazolidin-3-yl)methyl)thio)-N′-hydroxy-1,2,5-oxadiazole-3-carboximidamide] | 26.3 | 53.5 | 
14 | O=C(CSc1nonc1C(=NO)Nc1ccc(F)c(Br)c1)N1CCC[C@H]1CO [Example 134, N-(3-bromo-4-fluorophenyl)-N′-hydroxy-4-({2-[(2S)-2-(hydroxymethyl)pyrrolidin-1-yl]-2-oxoethyl}sulfanyl)-1,2,5-oxadiazole-3-carboximidamide] |  |  | 120
15 | O=S1(=O)NC[C@H](CSc2nonc2/C(=N/O)Nc2ccc(F)c(Cl)c2)N1 [Example 32, (R)—N-(3-chloro-4-fluorophenyl)-4-(((1,1-dioxido-1,2,5-thiadiazolidin-3-yl)methyl)thio)-N′-hydroxy-1,2,5-oxadiazole-3-carboximidamide] | 13.1 | 32 | 

The remaining lines, values ahead:

Row | IC50 (IDO1 [1]) [nM] | IC50 (IDO1 [2]; [3]) [nM] | IC50 (IDO1 [2]; IDO1 Enzyme Assay, IC50, nM) [nM] | SMILES
16 | 132 | 62.3 |  | O=C(CSc1nonc1/C(=N/O)Nc1ccc(F)c(Br)c1)N1CC[C@H](O)[C@@H](O)C1 [Example 196, N-(3-bromo-4-fluorophenyl)-4-((2-((3S,4S)-3,4-dihydroxypiperidin-1-yl)-2-oxoethyl)thio)-N′-hydroxy-1,2,5-oxadiazole-3-carboximidamide]
17 | 149 | 56 |  | O=C(CSc1nonc1/C(=N/O)Nc1ccc(F)c(Br)c1)N[C@H]1CCOC[C@H]1O [Example 198, 2-((4-(N-(3-bromo-4-fluorophenyl)-N′-hydroxycarbamimidoyl)-1,2,5-oxadiazol-3-yl)thio)-N-((3S,4S)-3-hydroxytetrahydro-2H-pyran-4-yl)acetamide]
18 | 11.7 | 12.4 |  | C[C@@H](CO)NC(=O)CSc1nonc1/C(=N/O)Nc1ccc(F)c(Br)c1 [Example 205, (S)-2-((4-(N-(3-bromo-4-fluorophenyl)-N′-hydroxycarbamimidoyl)-1,2,5-oxadiazol-3-yl)thio)-N-(1-hydroxypropan-2-yl)acetamide]
19 | 111 | 52 |  | NS(=O)(=O)NCCOc1nonc1/C(=N/O)Nc1ccc(F)c(Br)c1 [Example 212, N-(3-bromo-4-fluorophenyl)-N′-hydroxy-4-(2-(sulfamoylamino)ethoxy)-1,2,5-oxadiazole-3-carboximidamide]
20 | 12.2 | 20.2 |  | O=C(CSc1nonc1/C(=N/O)Nc1ccc(F)c(Br)c1)NC1(CO)CC1 [Example 202, 2-((4-(N-(3-bromo-4-fluorophenyl)-N′-hydroxycarbamimidoyl)-1,2,5-oxadiazol-3-yl)thio)-N-(1-(hydroxymethyl)cyclopropyl) acetamide]
21 | 508 | 57.8 |  | CNS(=O)(=O)NC(=O)CSc1nonc1/C(=N/O)Nc1ccc(F)c(Br)c1 [Example 199, 2-((4-(N-(3-bromo-4-fluorophenyl)-N′-hydroxycarbamimidoyl)-1,2,5-oxadiazol-3-yl)thio)-N-(N-methylsulfamoyl)acetamide]
22 | 15.3 | 44.9 |  | C[C@H](CO)NC(=O)CSc1nonc1/C(=N/O)Nc1ccc(F)c(Br)c1 [Example 197, (R)-2-((4-(N-(3-bromo-4-fluorophenyl)-N′-hydroxycarbamimidoyl)-1,2,5-oxadiazol-3-yl)thio)-N-(1-hydroxypropan-2-yl)acetamide]
23 | 144 | 82.6 |  | CC(C)(Sc1nonc1/C(=N/O)Nc1ccc(F)c(Br)c1)C(=O)NC[C@@H](O)CO [Example 204, (R)-2-((4-(N-(3-bromo-4-fluorophenyl)-N′-hydroxycarbamimidoyl)-1,2,5-oxadiazol-3-yl)thio)-N-(2,3-dihydroxypropyl)-2-methylpropanamide]
24 | 140 |  | 43.1 | O=C(CSc1nonc1/C(=N/O)Nc1ccc(F)c(Br)c1)NCC(O)CN1CCOCC1 (single isomer, unassigned) [Example 207, 2-((4-(N-(3-bromo-4-fluorophenyl)-N′-hydroxycarbamimidoyl)-1,2,5-oxadiazol-3-yl)thio)-N-(2-hydroxy-3-morpholinopropyl)acetamide]
25 | 37.5 | 26.6 |  | CC(C)(NC(=O)CSc1nonc1/C(=N/O)Nc1ccc(F)c(Br)c1)C(O)CO (stereo not shown) [Example 208, 2-((4-(N-(3-bromo-4-fluorophenyl)-N′-hydroxycarbamimidoyl)-1,2,5-oxadiazol-3-yl)thio)-N-(3,4-dihydroxy-2-methylbutan-2-yl)acetamide]
26 | 11.6 | 14.5 |  | C[C@H](O)CNC(=O)CSc1nonc1/C(=N/O)Nc1ccc(F)c(Br)c1 [Example 203, (S)-2-((4-(N-(3-bromo-4-fluorophenyl)-N′-hydroxycarbamimidoyl)-1,2,5-oxadiazol-3-yl)thio)-N-(2-hydroxypropyl)acetamide]
